Experimental data: the supplement of paper PMC10307832

How the values were obtained:
Test in all cases: relative viability (nuclei count vs DMSO), 5 days (fraction); higher = more cells survive
[1] = compound: C[C@]12O[C@H](C[C@]1(O)CO)n1c3ccccc3c3c4c(c5c6ccccc6n2c5c31)CNC4=O [Lestaurtinib] + N=C(N)NC(=N)NCCc1ccccc1 [Phenformin] (partner 250 µM)
Summary of the method: (§1)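 Each reported value is a median over duplicate plates. It expresses relative viability: treated-well nuclei count divided by vehicle-well nuclei count. Lung cancer cell lines in 1536-well plates were dosed by pin tool a day after seeding, alone with one drug or with a fixed anchor-drug dose plus five library-drug doses (not always all listed) in √10 steps, and nuclei were counted after 5 days.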

[2] = compound: C1=CC(=CC=C1C2=CC(=C(S2)NC(=O)N)C(=O)N)F [TPCA-1] + Cc1nc(Nc2ncc(C(=O)Nc3c(C)cccc3Cl)s2)cc(N2CCN(CCO)CC2)n1 [Dasatinib] (partner 0.075 µM)
Summary of the method: as §1

[3] = compound: C[C@]12O[C@H](C[C@]1(O)CO)n1c3ccccc3c3c4c(c5c6ccccc6n2c5c31)CNC4=O [Lestaurtinib] + CS(=O)(=O)CCNCc1ccc(-c2ccc3ncnc(Nc4ccc(OCc5cccc(F)c5)c(Cl)c4)c3c2)o1 [Lapatinib] (partner 2 µM)
Summary of the method: as §1

[4] = compound: C1/C(=C\C2=CC=CS2)/C(=O)/C(=C/C3=CC=CS3)/C1 + Cc1nc(Nc2ncc(C(=O)Nc3c(C)cccc3Cl)s2)cc(N2CCN(CCO)CC2)n1 [Dasatinib] (partner 0.075 µM)
Summary of the method: as §1

Cell Line	relative viability ([1]; first compound 0.005 µM)	relative viability ([1]; first compound 0.01581 µM)	relative viability ([1]; first compound 0.05 µM)	relative viability ([1]; first compound 0.1581 µM)	relative viability ([1]; first compound 0.5 µM)	relative viability ([2]; first compound 0.04 µM)	relative viability ([2]; first compound 0.1265 µM)	relative viability ([2]; first compound 0.4 µM)	relative viability ([2]; first compound 1.265 µM)	relative viability ([2]; first compound 4 µM)	relative viability ([3]; first compound 0.005 µM)	relative viability ([3]; first compound 0.01581 µM)	relative viability ([3]; first compound 0.05 µM)	relative viability ([3]; first compound 0.1581 µM)	relative viability ([3]; first compound 0.5 µM)	relative viability ([4]; first compound 0.2 µM)	relative viability ([4]; first compound 0.6325 µM)	relative viability ([4]; first compound 2 µM)	relative viability ([4]; first compound 6.325 µM)	relative viability ([4]; first compound 20 µM)
NCI-H1355	0.455	0.465	0.374	0.391	0.263	0.836	0.652	0.716	0.599	0.519	1.06	1.03	0.942	0.732	0.658	0.772	0.701	0.712	0.598	0.682
EKVX	0.207	0.245	0.231	0.244	0.239	0.535	0.542	0.529	0.487	0.627	0.192	0.221	0.195	0.194	0.198	0.556	0.433	0.519		0.459
NCI-H441	0.885	0.854	0.533	0.767	0.555	0.882	0.559	0.688	0.245	0.274						0.798	0.739	0.573	0.522	0.412
NCI-H1975	0.464	0.44	0.363	0.353	0.275	0.39	0.381	0.368	0.368	0.188	0.902	0.812	0.475	0.422	0.155	0.445	0.328		0.206	0.387
HCC-78	0.658	0.816	0.556	0.425	0.406	0.485	0.452	0.402	0.413	0.297	0.507	1.03	0.54	0.272	0.289	0.332	0.461	0.537	0.413	0.291
NCI-H2085	0.716	0.664	0.602	0.65	0.492	0.267	0.262	0.246	0.265	0.257	0.812	0.89	0.871	0.667	0.433	0.233	0.258	0.221	0.237	0.236
H3255	0.313	0.315	0.379	0.286	0.294	0.421	0.352	0.431	0.305	0.301	0.2	0.175	0.243	0.18	0.112	0.298	0.366	0.568	0.321	0.289
NCI-H2087	0.462	0.44	0.43	0.416	0.344	1.15	0.658	0.816	0.745	0.397	1.31	1.05	0.858	0.693	0.205	0.942	0.879	1.03	0.655	0.878
LC-2-ad	0.554	0.772	0.561	0.385	0.26	0.79	0.417	0.544	0.524	0.212	1.17	1.07	0.62	0.266	0.19	0.667	0.59	0.655	0.482	0.626
PC-3 [JPC-3]	0.434	0.504	0.352	0.477	0.386	0.959	0.99	1.04	0.943	0.999	0.425	0.498	0.456	0.414	0.335	1.03	0.981	1.04	0.856	0.948
EBC-1											0.164	0.236	0.251	0.234	0.185					
HCC-15	0.538	0.55	0.334	0.305	0.132	0.735	0.495	0.592	0.523	0.392	0.931	1.05	0.8	0.545	0.135	0.692	0.61	0.65	0.489	0.586
NCI-H1563	0.625	0.711	0.677	0.577	0.58	0.42	0.453	0.468	0.455	0.452	1.1	0.947	1.06	1.05	0.776	0.452	0.462	0.504	0.453	0.465
COR-L 105	0.465	0.476	0.371	0.353	0.238	0.307	0.361	0.345	0.225	0.204	0.358	0.389	0.289	0.304	0.256	0.453	0.341	0.339		0.302
NCI-H520	0.648	0.744	0.44	0.313	0.2	0.219	0.187	0.223	0.18	0.176	0.833	1	0.59	0.48	0.252	0.218	0.212	0.165	0.241	0.213
LU99A	0.819	0.76	0.627	0.438	0.315	0.509	0.522	0.619	0.356	0.366	0.839	0.627	0.446	0.38	0.213	0.611	0.539	0.714	0.623	0.554
NCI-H1666	0.613	0.617	0.668	0.561	0.389	0.842	0.829	0.828	0.805	0.677	0.732	1.2	0.51	0.556	0.277	0.833	0.847	0.811	0.786	0.875
NCI-H2170	0.41	0.424	0.42	0.32	0.244	0.676	0.56	0.632	0.581	0.269	0.267	0.248	0.273	0.238	0.201	0.47	0.632	0.639	0.622	0.511
NCI-H522	0.722	0.614	0.634	0.552	0.525	0.993	0.833	1.11	0.844	0.788						0.901	0.854	1.01	0.834	0.919

Cell Line	relative viability ([1]; first compound 0.005 µM)	relative viability ([1]; first compound 0.01581 µM)	relative viability ([1]; first compound 0.05 µM)	relative viability ([1]; first compound 0.1581 µM)	relative viability ([1]; first compound 0.5 µM)	relative viability ([2]; first compound 0.04 µM)	relative viability ([2]; first compound 0.1265 µM)	relative viability ([2]; first compound 0.4 µM)	relative viability ([2]; first compound 1.265 µM)	relative viability ([2]; first compound 4 µM)	relative viability ([3]; first compound 0.005 µM)	relative viability ([3]; first compound 0.01581 µM)	relative viability ([3]; first compound 0.05 µM)	relative viability ([3]; first compound 0.1581 µM)	relative viability ([3]; first compound 0.5 µM)	relative viability ([4]; first compound 0.2 µM)	relative viability ([4]; first compound 0.6325 µM)	relative viability ([4]; first compound 2 µM)	relative viability ([4]; first compound 6.325 µM)	relative viability ([4]; first compound 20 µM)
LCLC-97TM1	0.47	0.442	0.403	0.325	0.2	0.94	0.679	0.772	0.658	0.717	1.18	1.18	0.767	0.196	0.163	0.896	0.776	0.791	0.672	0.811
NCI-H1299											0.972	1.01	0.893	0.862	0.479					
NCI-H3122	0.365	0.431	0.372	0.363	0.175	1.01	0.828	0.866	0.851	0.517	1.07	1.05	1.02	0.98	0.414	0.843	0.836	1.05	0.827	0.82
NCI-H1395	0.451	0.432	0.422	0.484	0.312	0.478	0.39	0.4	0.421	0.344	1.15	1.26	0.848	0.853	0.416	0.422	0.406	0.399	0.406	0.382
NCI-H2009	0.51	0.46	0.437	0.465	0.235	0.395	0.267	0.278	0.223	0.177	0.959	0.942	0.807	0.755	0.15	0.282	0.296	0.306	0.269	0.311
NCI-H1651	0.326	0.429	0.295	0.329	0.184	0.444	0.382	0.402	0.395	0.383	0.756	0.93	0.715	0.636	0.211	0.435	0.504	0.417	0.425	0.401
HARA	0.507	0.477	0.369	0.358	0.251	0.298	0.289	0.298	0.257	0.231	0.795	0.748	0.738	0.68	0.369	0.275	0.3	0.338	0.269	0.252
NCI-H1944	0.194	0.209	0.164	0.133	0.132	0.251	0.207	0.217	0.198	0.151	0.924	0.733	0.691	0.58	0.571	0.225	0.202	0.217	0.225	0.19
NCI-H2347	0.304	0.448	0.316	0.309	0.39	0.296	0.277	0.26	0.258	0.262	0.938	0.968	0.871	0.65	0.613	0.323	0.281	0.311		0.352
Calu-6											1.09	1.2	0.557	0.499	0.208					
NCI-H1703											1.07	1.09	0.597	0.278	0.123					
NCI-H2342	0.545	0.656	0.551	0.652	0.613	0.323	0.323	0.276	0.241	0.294						0.314	0.347	0.352	0.306	0.326
ChaGo-K-1	0.484	0.447	0.448	0.333	0.275	0.754	0.594	0.705	0.561	0.218						0.546	0.669	0.592	0.51	0.286
NCI-H1623	0.609	0.593	0.557	0.525	0.51	0.523	0.466	0.576	0.62	0.336						0.53	0.561	0.52	0.52	0.53
HCC-44	0.194	0.193	0.173	0.283	0.185						0.985	1.14	0.851	1.14	0.479					
SW 900	0.69	0.715	0.63	0.803	0.4	0.768	0.526	0.685	0.307	0.583						0.64	0.773	0.769	0.574	0.671
IA-LM											1	1.06	0.91	0.905	0.396					
A549	0.204	0.141	0.16	0.1	0.045						1.1	0.972	0.447	0.132	0.0697					
LCLC-103H	0.336	0.379	0.327	0.288	0.234	0.518	0.447	0.481	0.397	0.465						0.402	0.466	0.572	0.481	0.444
